Reference: US20120252865A1, “CARBAMATE DERIVATIVES IN PARTICULAR FOR THE TREATMENT OF NEUROLOGICAL DISORDERS” (SIGMA-TAU INDUSTRIE FARMACEUTICHE RIUNITE S.P.A., priority 2009, published 2012)

Columns and labels:
pain [1] = conditions: Kathuria S., et al, Nat. Med., 2003; cited from earlier work
anxiety = conditions: Kathuria S., et al, Nat. Med., 2003; cited from earlier work
mechanical hyperalgesia = test: Paw withdrawal test for mechanical hyperalgesia (Randall-Selitto analgesimeter); type: in vivo; conditions: rat, 50 mg/kg (FIG. 1)
Protocol: The paw withdrawal test was used to assess mechanical hyperalgesia. The nociceptive threshold, expressed in grams, was measured by applying increasing pressure to the left and right hind paws using a Randall-Selitto analgesimeter (Ugo Basile, Varese, Italy). The parameter used to quantify the nociceptive threshold was defined as the pressure (grams) at which the rat withdrew its paw. Rats were habituated to the testing procedures and handling by the investigator in the week prior to the experiment.
Dose response experiments at 10, 30 and 100 mg/kg were also conducted with ST4068, ST3911 and ST3913.

pain [2] = conditions: Kathuria S., et al, Nat. Med., 2003; cited from earlier work; remark: listed apart in the source

NC(=O)c1cccc(-c2cccc(OC(=O)NC3CCCCC3)c2)c1 [URB597]
analgesic efficacy in the rat hot plate test (pain [1]): analgesic efficacy | efficacy in the zero plus maze animal model of anxiety (anxiety): efficacious | analgesic activity (nociceptive threshold, paw withdrawal) (mechanical hyperalgesia): did not show any activity | analgesic efficacy in the rat formalin test (pain [2]): analgesic efficacy
